This assay concerns the target Adenylate kinase isoenzyme 1 (Homo sapiens) (UniProt P00568). Kind of assay: ligand-induced stabilization of human AK1 – biophysical, DSF, SYPRO orange (AID 379). The following applies: purified AK1, DSF SYPRO orange thermal shift; at 5 µM; protein 1 µM; buffer 10 mM HEPES; hits give high values.

Adenylate kinase isoenzyme 1 (Homo sapiens), sequence (P00568 whole entry, looked up): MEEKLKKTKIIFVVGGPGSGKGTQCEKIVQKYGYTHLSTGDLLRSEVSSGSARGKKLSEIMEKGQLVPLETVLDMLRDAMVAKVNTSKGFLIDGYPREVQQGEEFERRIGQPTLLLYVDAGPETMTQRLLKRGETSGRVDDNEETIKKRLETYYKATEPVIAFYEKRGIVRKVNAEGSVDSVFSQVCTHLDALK

On to `Nc1ncnc2c1ncn2[C@@H]1O[C@H](COP(=O)(O)OP(=O)(O)OP(=O)(O)OP(=O)(O)OP(=O)(O)OC[C@H]2O[C@@H](n3cnc4c(N)ncnc43)[C@H](O)[C@@H]2O)[C@@H](O)[C@H]1O`, for which the Tm shift was 15.4 Celsius.

The values above are taken from PubChem BioAssay AID379.
